Source: PMC10229078, “In vitro effects of lapachol and β-lapachone against Leishmania amazonensis” (Brazilian Journal of Medical and Biological Research, 2023)
In brackets after ≈: the same amount, converted by molar mass.

Assays:
[1] = test system: Leishmania amazonensis promastigotes; test: Mitochondria membrane potential (ΔΨm), Rh123 flow cytometry; format: cell-based; details: for Reduction in ΔΨm: lapachol 76.62 µg/mL, β-lapachone 1.63 µg/mL, H2O2 2 mM; for Variation Index (VI) of Rh123 fluorescence, (MT−MC)/MC: lapachol 76.62 μg/mL, β-lapachone 1.63 μg/mL, PC 2 mM
Protocol: The ΔΨm was determined using on BD FacsCalibur™ flow cytometer and CellQuest Pro software, with a total of 10.000 events acquired, using a mitochondrial-specific green-fluorescent dye Rh123 ([31]). Briefly, L. amazonensis (2×10^7 parasites/mL) were incubated with lapachol (76.62 µg/mL) and β-lapachone (1.63 µg/mL) for 1, 4, and 24 h at 25°C. After washed with PBS, the parasites were incubated with 5 μg/mL Rh123 for 15 min. After the incubation time, the cells were washed and suspended in PBS for additional incubation of 30 min for analysis. The percentage of fluorescence of Rh123, was determined by the (MT/MC)*100 equation, with MT representing the median fluorescence of the treated parasites and the MC the median fluorescence of negative controls. Alteration in ΔΨm was quantified using an index of variation (IV) obtained by the equation IV = (MT - MC)/MC, where negative IV values correspond to depolarization of the mitochondrial membrane. H2O2 (2 mM) was used as a positive control ([32]).

[2] = test system: Leishmania amazonensis promastigotes; test: Change in cell volume and morphology of the parasites (flow cytometry FSC-H/SSC-H, SEM); format: cell-based; details: 24 h; lapachol 76.62 µg/mL, β-lapachone 1.63 µg/mL, H2O2 2 mM; untreated 93.14%
Protocol: Promastigote forms (2×10^7 cells) of L. amazonensis untreated (negative control) or treated with 76.62 µg/mL of lapachol and 1.63 µg/mL of β-lapachone were analyzed to observe changes in cell morphology of the parasites induced by the treatment after 24 h of incubation. […] Subsequently, the parasites were analyzed using a BD FacsCalibur flow cytometer (Becton Dickinson, USA) and CellQuest Pro software (Joseph Trotter, Scripps Research Institute, USA), and 10,000 events were acquired. Dot plots were generated, the forward scatter (FSC-H) parameter was analyzed as presenting a correlation with the cell volume.
Scanning electron microscopy (SEM) also was performed to analyze morphological changes in cell surface topography. After 24 h of treatment, the parasites were centrifuged at 576 g for 10 min, and the samples were fixed in 2.5% glutaraldehyde and 0.1 M sodium cacodylate buffer. Poly-L-lysine was used to promote the adhesion of fixed parasites on coverslips. Promastigotes were dehydrated with increasing ethanol concentrations (30-100%), submitted to critical point drying, and metalized with gold for visualization on a Shimadzu 55-550 (Japan) microscope.

[3] = test system: Leishmania amazonensis promastigotes; test: Promastigote growth inhibition, counting in Neubauer chamber (IC50); format: cell-based, Leishmania amazonensis (MHOM/BR/1977/LTB0016); details: Leishmania amazonensis; 24 h incubation, growth inhibition by counting
Protocol: Leishmania growth was evaluated after 24 h of incubation at 25°C with the compounds under the same conditions as previously mentioned. Then, 10 µL of the content of each well was added to a 990 µL (1/100) of formalin solution (2%), and the parasites were counted in a Neubauer chamber. The inhibitory concentration (IC50) of promastigotes was calculated by comparing with untreated promastigotes in culture medium. The results were evaluated by linear regression of the inhibition percentage. The selectivity index (SI CC50/IC50) was calculated by the ratio of toxicity concentration to macrophage vs inhibitory concentration to the parasite growth after 24 h incubation ([27]). All assays were performed in triplicate and repeated at least three times.

[4] = test system: Leishmania amazonensis promastigotes; test: Viability assay of promastigotes, XTT colorimetric method (LD50); format: cell-based, Leishmania amazonensis (MHOM/BR/1977/LTB0016); details: 25°C
Protocol: The viability of L. amazonensis (MHOM/BR/1977/LTB0016) promastigotes was evaluated using the XTT colorimetric method, which consists in the XTT salt degradation by the mitochondria forming formazan crystals. Promastigote forms (2×10^7 parasites/mL) from a culture in logarithmic growth phase were incubated with lapachol and β-lapachone diluted in 199 culture medium. The drugs were diluted in series, in a ratio of two, starting from 1/2, on a 96-well cell culture plate (TPP™ test plate, Switzerland). The compounds were tested at concentrations from 204.4 to 0.40 µg/mL (lapachol) and 157.5 to 0.31 µg/mL (β-lapachone). After 24, 48, and 72 h of incubation at 25°C, 100 μL of the XTT solution (500 μg/mL) activated with PMS (50 μg/mL) were added to each well and incubated for 4 h at 37°C. The result was measured by absorbance, determined by spectrophotometry (450/650 nm filter, VersaMax™ ELISA microplate reader, USA). The lethal dose (LD50) was defined as the concentrations of the compounds that reduced survival of L. amazonensis by 50% compared to untreated parasites in culture medium. AmB (1.96 to 0.25 µg/mL) was used as positive control of leishmanicidal activity. The therapeutic selectivity index (TSI CC50/LD50) was calculated by the ratio of toxicity to macrophage vs toxicity to parasites after 24 h incubation ([28]). All assays were performed in triplicate and repeated at least three times.

Structure (SMILES) | Reduction in ΔΨm ([1]; 1 h) | Variation Index (VI) of Rh123 fluorescence, (MT−MC)/MC ([1]; 1 h) | Variation Index (VI) of Rh123 fluorescence, (MT−MC)/MC ([1]; 4 h) | Reduction in ΔΨm ([1]; 24 h) | Variation Index (VI) of Rh123 fluorescence, (MT−MC)/MC ([1]; 24 h) | Percentage population of the lower left quadrant gate (FSC-H/SSC-H, cell volume) [2] | IC50 [3] | Promastigotes LD50 ([4]; 24 h incubation) | Promastigotes LD50 ([4]; 48 h incubation) | Promastigotes LD50 ([4]; 72 h incubation)
OO [H2O2, reference compound] | 97% | -0.97 | -0.98 | 98% | -0.98 | 49.51% |  |  |  | 
C[C@@H]1[C@H](O)[C@@H](C)/C=C/C=C/C=C/C=C/C=C/C=C/C=C/[C@H](O[C@@H]2O[C@H](C)[C@@H](O)[C@H](N)[C@@H]2O)C[C@@H]2O[C@](O)(C[C@@H](O)C[C@@H](O)[C@H](O)CC[C@@H](O)C[C@@H](O)CC(=O)O[C@H]1C)C[C@H](O)[C@H]2C(=O)O [AmB, Amphotericin B, reference compound] |  |  |  |  |  |  | 0.632 ± 0.12 µg/mL (≈ 0.684 µM) | 0.97 ± 0.09 µg/mL | 1.65 ± 0.02 µg/mL | 0.80 ± 0.03 µg/mL
